In PMC5863496, “Mesobuthus Venom-Derived Antimicrobial Peptides Possess Intrinsic Multifunctionality and Differential Potential as Drugs” (Frontiers in Microbiology, 2018):
Ends that are not written are not given here.

Tests used:
[1] = system: Bacillus cereus CGMCC 1.1846; assay: Inhibition-zone assay (CL); format: cell-based; conditions: BC CGMCC 1.1846, N.A. = no activity at 0.8 nmol peptide each well
In short: (§1)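 Bacteria (~2 × 10^6 cells/ml) were seeded in 0.8% soft-agar medium (LB, Nutrient Broth or GYM) and grown at 30 or 37°C. Three peptide doses were placed in separate 2 mm wells, and inhibition zones were measured after overnight incubation. CL was calculated from the slope and intercept of a d^2 versus log n plot.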

[2] = system: Escherichia coli DH5α; assay: Inhibition-zone assay (CL); format: cell-based; conditions: EC DH5α, N.A. = no activity at 0.8 nmol peptide each well
In short: as §1

[3] = system: Escherichia coli JM109; assay: Inhibition-zone assay (CL); format: cell-based; conditions: EC JM109, N.A. = no activity at 0.8 nmol peptide each well
In short: as §1

[4] = Serum stability; format: in vitro ADME; conditions: fresh mouse serum, 37°C, read-out inhibition zone on Micrococcus luteus plates, triplicate
Description: To assess serum stability, peptides were dissolved in H2O or fresh mouse serum for the indicated times at 37°C and their residual activity was measured by the inhibition-zone assay (Hultmark, [1998]).

[5] = system: Pseudomonas aeruginosa 11092304; assay: Inhibition-zone assay (CL); format: cell-based; conditions: PA 11092304, N.A. = no activity at 0.8 nmol peptide each well
In short: as §1

[6] = system: Aspergillus nidulans A28; assay: Inhibition-zone assay (CL); format: cell-based; conditions: ANID A28, 28°C, N.A. = no activity at 0.8 nmol peptide each well
[7] = system: Candida albicans 4257; assay: Inhibition-zone assay (CL); format: cell-based; conditions: CA 4257, 28°C, N.A. = no activity at 0.8 nmol peptide each well
[8] = system: Candida albicans JX1009; assay: Inhibition-zone assay (CL); format: cell-based; conditions: CA JX1009, 28°C, N.A. = no activity at 0.8 nmol peptide each well
[9] = system: Candida albicans SZ56; assay: Inhibition-zone assay (CL); format: cell-based; conditions: CA SZ56, 28°C, N.A. = no activity at 0.8 nmol peptide each well
[10] = system: Candida albicans SZ72; assay: Inhibition-zone assay (CL); format: cell-based; conditions: CA SZ72, 28°C, N.A. = no activity at 0.8 nmol peptide each well
[11] = system: Geotrichum candidum CCTCC AY 93038; assay: Inhibition-zone assay (CL); format: cell-based; conditions: GC CCTCC AY 93038, 28°C, N.A. = no activity at 0.8 nmol peptide each well
[12] = system: Pichia pastoris X33; assay: Inhibition-zone assay (CL); format: cell-based; conditions: PP X33, 28°C, N.A. = no activity at 0.8 nmol peptide each well
[13] = system: Saccharomyces cerevisiae CCTCC AY 92003; assay: Inhibition-zone assay (CL); format: cell-based; conditions: SC CCTCC AY 92003, 28°C, N.A. = no activity at 0.8 nmol peptide each well
[14] = system: Pseudomonas aeruginosa 374; assay: Inhibition-zone assay (CL); format: cell-based; conditions: PA 374, N.A. = no activity at 0.8 nmol peptide each well
In short: as §1

[15] = system: Pseudomonas aeruginosa FRD1; assay: Inhibition-zone assay (CL); format: cell-based; conditions: PA FRD1, N.A. = no activity at 0.8 nmol peptide each well
In short: as §1

[16] = system: Pseudomonas solanacearum
[17] = system: Serratia marcescens ATCC 14041; assay: Inhibition-zone assay (CL); format: cell-based; conditions: SMAR ATCC 14041, N.A. = no activity at 0.8 nmol peptide each well
In short: as §1

[18] = system: Aspergillus nidulans Rcho15; assay: Inhibition-zone assay (CL); format: cell-based; conditions: ANID Rcho15, 28°C, N.A. = no activity at 0.8 nmol peptide each well
[19] = system: Candida albicans JX1195; assay: Inhibition-zone assay (CL); format: cell-based; conditions: CA JX1195, 28°C, N.A. = no activity at 0.8 nmol peptide each well
[20] = system: fresh erythrocytes from the pigeons; assay: Hemolytic assay, bird (pigeon) erythrocytes; format: cell-based, Columba livia domestica; conditions: peptide 25 μM; bird blood cells; 30 min, 37°C
Description: Hemolytic activity of peptides against fresh erythrocytes from the ICR mice (Mus musculus), the lizards (Eremias multiocellata) or the pigeons (Columba livia domestica) was assayed according to the standard method (Zhu et al., [2012a]). An aliquot of freshly prepared venom was diluted with 0.9% NaCl to a protein concentration of ~5 mg/mL for use. The percentage of hemolysis is determined as (Apep-Ablank)/(Atot-Ablank) × 100, in which “A” represents absorbance measured at 570 nm. Ablank and Aprep were evaluated in the absence or presence of the venom or peptides. 100% hemolysis (Atot) was obtained in the presence of 1% Triton X-100.

Compound | Lethal concentration (CL) [1] | Lethal concentration (CL) [5] | Lethal concentration (CL) [7] | Lethal concentration (CL) [8] | Lethal concentration (CL) [9] | Lethal concentration (CL) [10] | Lethal concentration (CL) [11] | Lethal concentration (CL) [13] | also measured
CC[C@H](C)[C@H](NC(=O)CN)C(=O)NCC(=O)N[C@@H](C)C(=O)N[C@H](C(=O)N[C@@H](CC(C)C)C(=O)N[C@@H](CCCCN)C(=O)N[C@H](C(=O)N[C@@H](CC(C)C)C(=O)N[C@H](C(=O)N[C@H](C(=O)NCC(=O)N[C@@H](CC(C)C)C(=O)N1CCC[C@H]1C(=O)N[C@@H](C)C(=O)N[C@@H](CC(C)C)C(=O)N[C@H](C(=O)N[C@@H](CO)C(=O)N[C@@H](Cc1c[nH]c2ccccc12)C(=O)N[C@H](C(=O)N[C@@H](CCCCN)C(=O)N[C@@H](CCCNC(=N)N)C(=O)N[C@@H](CCCCN)C(=O)N[C@@H](CCCNC(=N)N)C(=O)N[C@@H](CCC(N)=O)C(=O)N[C@@H](CCC(N)=O)C(N)=O)[C@@H](C)CC)[C@@H](C)CC)[C@@H](C)O)[C@@H](C)O)C(C)C)C(C)C [Melittin, reference compound] | 24.74 µM |  |  |  |  |  |  |  | Lethal concentration (CL) [2]: 18.20 µM; Lethal concentration (CL) [3]: 23.53 µM; residual activity after incubation in mouse serum ([4]; 24 h, 0.72-1.44 nmol each well): only little or no activity remained
FFGHLFKLATKIIPSLFQ [MUC-18, reference compound] |  | 31.40 µM |  |  |  |  |  |  | 
FLFSLIPSAISGLISAFK-NH2 [MeuFSPL-1] | 15.33 µM |  | 14.64 µM | 15.55 µM | 21.82 µM | 21.82 µM | 17.70 µM | 25.00 µM | Lethal concentration (CL) [6]: 14.84 µM; Lethal concentration (CL) [12]: 8.21 µM
FLFSLIPSAISGLINAFK-NH2 [MeuFSPL-2] | 19.57 µM |  | 12.72 µM | 11.58 µM | 14.80 µM | 12.72 µM | 24.94 µM | 11.62 µM | residual activity after incubation in mouse serum ([4]; 4 h, 0.72 nmol/well): entirely lost
FFGHLFKLATKIIPSFFRRKNQ [MAC-22] |  | 24.82 µM |  |  |  |  |  |  | Lethal concentration (CL) [14]: 18.75 µM; Lethal concentration (CL) [15]: 18.75 µM; Lethal concentration (CL) [16]: 22.08 µM
FFGHLFKLATKIIPSLFQRKKE [MUC-22] |  | 10.02 µM |  |  |  |  |  |  | Lethal concentration (CL) [14]: 16.86 µM; Lethal concentration (CL) [15]: 16.86 µM; Lethal concentration (CL) [17]: 58.93 µM; Lethal concentration (CL) [16]: 21.61 µM
FLFSLIPSAISGLISAFKGRRKRDLN-NH2 [MarMEL] | 6.69 µM | 24.95 µM | 6.84 µM | 6.49 µM | 8.49 µM | 6.70 µM | 6.34 µM | 7.72 µM | Lethal concentration (CL) [6]: 7.14 µM; Lethal concentration (CL) [18]: 5.65 µM; Lethal concentration (CL) [19]: 5.65 µM; Lethal concentration (CL) [2]: 5.48 µM; Lethal concentration (CL) [3]: 5.55 µM; Lethal concentration (CL) [12]: 3.57 µM; hemolysis [20]: nearly complete hemolysis
